In the NIST ThermoML archive (doi:10.1021/acs.jced.9b00334):

Details: Liquid, Vibrating tube method

CCn1cc[n+](C)c1.CCn1cc[n+](C)c1.[Co+2].[N-]=C=S.[N-]=C=S.[N-]=C=S.[N-]=C=S [bis(1-ethyl-3-methylimidazolium) tetrathiocyanatocobaltate]
mass density [kg/m3]
Details | 283.1 K | 293.1 K | 303.1 K | 313.2 K | 323.2 K | 333.2 K | 343.1 K | 353.1 K | 363.1 K
100 kPa | 1286.1 | 1278.7 | 1271.5 | 1264.4 | 1257.3 | 1250.3 | 1243.3 | 1236.4 | 1229.5
1000 kPa | 1286.5 | 1279.1 | 1272 | 1264.9 | 1257.8 | 1250.7 | 1243.7 | 1236.9 | 1230.1
2000 kPa | 1287 | 1279.6 | 1272.5 | 1265.3 | 1258.4 | 1251.3 | 1244.3 | 1237.5 | 1230.6
5000 kPa | 1288.4 | 1281.1 | 1273.9 | 1266.8 | 1259.9 | 1253 | 1246 | 1239.2 | 1232.4
7000 kPa | 1289.3 | 1282.1 | 1274.9 | 1267.9 | 1260.9 | 1253.9 | 1247 | 1240.3 | 1233.5
10000 kPa | 1290.6 | 1283.4 | 1276.3 | 1269.4 | 1262.5 | 1255.3 | 1248.6 | 1241.7 | 1235.1
15000 kPa | 1292.8 | 1285.7 | 1278.6 | 1271.7 | 1265 | 1257.9 | 1251.3 | 1244.3 | 1237.7
20000 kPa | 1295 | 1287.9 | 1281 | 1274.1 | 1267.3 | 1260.1 | 1253.7 | 1246.9 | 1240.4
25000 kPa | 1297.1 | 1290 | 1283.1 | 1276.3 | 1269.6 | 1262.7 | 1256 | 1249.4 | 1243
30000 kPa | 1299.1 | 1292.1 | 1285.4 | 1278.7 | 1271.9 | 1265.1 | 1258.3 | 1251.9 | 1245.6
35000 kPa | 1301.1 | 1294.3 | 1287.6 | 1280.9 | 1274.1 | 1267.5 | 1260.6 | 1254.3 | 1248.2
40000 kPa | 1303.2 | 1296.3 | 1289.6 | 1282.9 | 1276.4 | 1269.5 | 1263 | 1256.7 | 1250.5
45000 kPa | 1305.2 | 1298.4 | 1291.7 | 1285.1 | 1278.6 | 1272 | 1265.5 | 1259.1 | 1252.7
50000 kPa | 1307.2 | 1300.5 | 1294 | 1287.4 | 1280.8 | 1274.2 | 1267.7 | 1261.2 | 1254.9
55000 kPa | 1309 | 1302.5 | 1295.9 | 1289.5 | 1282.9 | 1276.4 | 1269.6 | 1263.6 | 1257.2
60000 kPa | 1311 | 1304.3 | 1297.9 | 1291.4 | 1285 | 1278.4 | 1271.8 | 1265.7 | 1259.4
65000 kPa | 1312.9 | 1306.3 | 1299.7 | 1293.3 | 1287 | 1280.4 | 1274.1 | 1267.7 | 1261.6
70000 kPa | 1314.8 | 1308.3 | 1301.7 | 1295.3 | 1288.9 | 1282.4 | 1275.9 | 1269.9 | 1263.7
75000 kPa | 1316.6 | 1310.2 | 1303.7 | 1297.2 | 1290.9 | 1284.6 | 1277.9 | 1272 | 1265.8
80000 kPa | 1318.3 | 1312.2 | 1305.4 | 1299 | 1292.8 | 1286.5 | 1280.2 | 1274.2 | 1267.8
85000 kPa | 1320 | 1313.9 | 1307.4 | 1301.1 | 1294.7 | 1288.6 | 1282.4 | 1276.1 | 1270.1
90000 kPa | 1321.9 | 1315.6 | 1309.4 | 1302.9 | 1296.8 | 1290.4 | 1284.3 | 1278.2 | 1272.1
95000 kPa | 1323.8 | 1317.5 | 1311 | 1304.8 | 1298.7 | 1292.5 | 1286.1 | 1280.2 | 1273.8

CCCCn1cc[n+](C)c1.CCCCn1cc[n+](C)c1.[Co+2].[N-]=C=S.[N-]=C=S.[N-]=C=S.[N-]=C=S [bis(1-butyl-3-methylimidazolium) tetrathiocyanatocobaltate]
mass density [kg/m3]
Details | 283.16 K | 293.13 K | 303.17 K | 313.17 K | 323.18 K | 333.15 K | 343.14 K | 353.13 K | 363.14 K
100 kPa | 1233.1 | 1226.4 | 1219.6 | 1212.6 | 1205.8 | 1199 | 1192.4 | 1185.8 | 1179.2
1000 kPa | 1233.5 | 1226.9 | 1220.1 | 1213.2 | 1206.3 | 1199.5 | 1192.9 | 1186.3 | 1179.8
2000 kPa | 1233.9 | 1227.4 | 1220.5 | 1213.6 | 1206.8 | 1200.1 | 1193.5 | 1186.9 | 1180.3
5000 kPa | 1235.3 | 1228.9 | 1222.1 | 1215.2 | 1208.3 | 1201.8 | 1195.1 | 1188.6 | 1182
7000 kPa | 1236.2 | 1229.7 | 1222.9 | 1216.2 | 1209.4 | 1202.7 | 1196.2 | 1189.6 | 1183.2
10000 kPa | 1237.6 | 1231.1 | 1224.3 | 1217.7 | 1210.8 | 1204.2 | 1197.7 | 1191.2 | 1184.8
15000 kPa | 1239.8 | 1233.5 | 1226.8 | 1220.1 | 1213.3 | 1206.7 | 1200.4 | 1193.8 | 1187.5
20000 kPa | 1241.9 | 1235.6 | 1229.1 | 1222.5 | 1215.8 | 1209.2 | 1202.8 | 1196.5 | 1190
25000 kPa | 1244 | 1237.6 | 1231.3 | 1224.8 | 1218.1 | 1211.6 | 1205.1 | 1198.9 | 1192.6
30000 kPa | 1245.9 | 1239.7 | 1233.5 | 1226.9 | 1220.5 | 1213.9 | 1207.5 | 1201.3 | 1195
35000 kPa | 1248 | 1241.8 | 1235.6 | 1229.1 | 1222.8 | 1216.2 | 1209.8 | 1203.6 | 1197.4
40000 kPa | 1250.1 | 1243.8 | 1237.7 | 1231.3 | 1224.9 | 1218.3 | 1212.2 | 1205.9 | 1199.9
45000 kPa | 1251.9 | 1245.9 | 1239.7 | 1233.3 | 1227 | 1220.5 | 1214.4 | 1208.1 | 1202.2
50000 kPa | 1253.9 | 1248 | 1241.7 | 1235.3 | 1229.1 | 1222.8 | 1216.4 | 1210.5 | 1204.5
55000 kPa | 1255.8 | 1250 | 1243.6 | 1237.4 | 1231.1 | 1224.9 | 1218.6 | 1212.8 | 1206.7
60000 kPa | 1257.6 | 1251.9 | 1245.6 | 1239.4 | 1233.2 | 1227 | 1220.7 | 1215.1 | 1208.9
65000 kPa | 1259.4 | 1253.8 | 1247.5 | 1241.3 | 1235.1 | 1229.1 | 1222.9 | 1216.9 | 1211.2
70000 kPa | 1261.3 | 1255.5 | 1249.4 | 1243.4 | 1237.2 | 1231 | 1225 | 1219 | 1213.2
75000 kPa | 1263.2 | 1257.4 | 1251.3 | 1245.2 | 1239.2 | 1233 | 1227 | 1221.1 | 1215.3
80000 kPa | 1264.9 | 1259.1 | 1253.1 | 1247 | 1241 | 1235.1 | 1229.1 | 1223.1 | 1217.3
85000 kPa | 1266.6 | 1261 | 1254.8 | 1248.9 | 1242.9 | 1236.9 | 1231 | 1225.2 | 1219.3
90000 kPa | 1268.4 | 1262.6 | 1256.7 | 1250.6 | 1244.8 | 1238.9 | 1232.8 | 1227.1 | 1221.4
95000 kPa | 1270.1 | 1264.4 | 1258.5 | 1252.5 | 1246.5 | 1240.7 | 1234.8 | 1229.1 | 1223.3
